Data set [1] concerns human glioblastoma cells (TB 10). Kind of data set: MEPHISTO x-ray spectromicroscopy, Gd in nucleus vs. cytoplasm. The data set is classed as cell-based. The settings on record: 10 mg/ml. As to the method: 1) For spectromicroscopy experiments, two series of cell cultures from different passages were prepared, in which 5×10^4 cells/cm^2 were plated in 35 mm plastic Petri dishes, each containing 4 to 5 gold-plated stainless steel substrates (5 mm diameter). The Gd exposure concentration was 10 mg/ml and the exposure times were 0 to 72 hours. At the end of the exposure periods, all dishes were carefully washed three times with phosphate buffered saline (PBS) to remove all unbound Gd-DTPA, fixed in 4% paraformaldheyde in PBS for 20 minutes, and then washed in Milii Q water. The samples were then air-dried at room temperature and etched by exposure to UV light from a low-pressure mercury lamp in the presence of ozone. UV/O3 etching selectively removes carbon and nitrogen from the cells without architectural distortion, thereby preserving the micro localization of all other elements.^(18,19) In the present study, etching was employed to reveal the local (i.e., nuclear) concentration of Gd which would otherwise not be detectable with x-ray absorption spectroscopy. The cell cultures were etched for 116 hours, at a distance of 5 mm from the UV lamp.
Microchemical analysis of the etched cell cultures was performed with the custom-built MEPHISTO (Microscope á Emission de PHotoélectrons par Illumination Synchrotronique de Type Onduleur) X-ray photoelectron emission microscope (X-PEEM), which uses an electron optics system (SpectroMicroTech, Orlando, Fla., USA) to form a magnified image of the photoelectrons emitted by a specimen under soft x-ray illumination. The image magnification is continuously variable up to 8000x, and the optimum lateral resolution is 20 nm^(15). The image pixel intensity (corresponding to total photoelectron yield, per unit area, per unit time) is recorded as a function of photon energy. […] The position and line-shape of spectral features provide element identification and chemical state information. Spectra can be acquired simultaneously from regions selected on the real time image of the sample surface, and the probed depth is on the order of 100 Å. For this work, the MEPHISTO X-PEEM was mounted on the HERMON beamline of the University of Wisconsin-Madison Synchrotron Radiation Center (Stoughton, Wis.).
MEPHISTO micrographs acquired at a specific photon energy were processed in Adobe Photoshop 5.0 software for Macintosh to enhance the contrast and add a scale bar. […]
A comparison of ICP-MS and MEPHISTO data, determines the calibration of the MEPHISTO analysis, and therefore quantitative information on the Gd concentration at the microscopic level. […] These factors were derived from the matching of MEPHISTO data from whole cells to the ICP-MS cell-bulk data, so that they quantitatively overlap. […]

Data set [2] shares this test system. Kind of data set: Gd-DTPA toxicity by cell counting. The data set is classed as cell-based. As to the method: Two effects that may affect the Gd-DTPA uptake kinetics were examined: compound toxicity and cell density. Three independent series of cell cultures were grown at different densities and exposed for up to 120 hours. Cell counting performed at the end of the incubation time either in control or in Gd-treated cultures gave the same cell number.
In addition, some of the cells exposed to Gd-DTPA for 120 hours were re-plated.

Data set [3] has the same test system. Kind of data set: Cell survival after thermal neutron irradiation of Gd-DTPA-exposed cultures. The data set is classed as cell-based. The settings on record: for cell death after neutron irradiation: FIG. 5. As to the method: 5) For neutron bombardment, two series of cell cultures (each one in duplicate) from different passages were plated in plastic “NUNC”-brand flasks (Nalge Nunc International, Rochester, N.Y.) (NUNCLON, 25 cm^2culture area) at a density of 1×10^4 cells/cm^2 and exposed to no Gd-DTPA, 1 mg/ml, 5 mg/ml, or 10 mg/ml GdDTPA, for 72 hours, beginning 24 hours after plating. At the end of the exposure period, the growth media were removed and the flasks filled with Puck's modified saline, in which the cells remained for two hours before neutron bombardment. The cells were then irradiated for one hour under a thermal neutron flux of 3×10^8 n/cm^2s (nominal power 5 kW), at the ENEA's (Ente per le Nuove Tecnologie, L'Energia e L'Ambiente, Rome, Italy) TAPIRO fast Reactor. The fast neutron flux at the center of the irradiation chamber (20 cm^3 cube) was negligible, while the γ average dose was 3.2 Gy/h.^(20) Two hours later, the cells were detached from the plates, and cell survival was measured by cell counting and by the colorimetric MTT assay. The standard deviation of cell counting results on the four culture series was within 10%.
To verify if the 140 μg/ml of Gd retained by glioblastoma cells in the two- to four-hour washout time was still available as an efficient tumoricidal agent for NCT, the cultures were irradiated for one hour with thermal neutrons.
The data of FIG. 5 were obtained by direct living cell count and very similar results were obtained by the use of an MTT assay. As presented in FIG. 5, the control cultures (no Gd) were also affected by neutron irradiation, causing 20% of the cells to die. […] The serum-free environment insures that the DNA-repair cellular mechanism is slowed down, resulting (in principle) in decreased survival of the cells in which the Gd neutron capture reaction induced DNA damage. The 20% cell killing observed in cells not exposed to Gd provides an evaluation of the extent of this phenomenon.

The conditions of data set [4]: cited from earlier work.
The conditions of data set [5]: higher concentrations and prolonged exposure; cited from earlier work.
The subject of data set [6] is human glioblastoma cells (TB 10). The data set can be described thus: ICP-MS Gd uptake by glioblastoma cell cultures exposed to Gd-DTPA. As to conditions: for cellular Gd concentration: 10 mg/ml Gd-DTPA.

“Also recorded” adds a separate entry of the source.

The values that follow come from US6770020B2 (priority 2001, dated 2004).

On to `O=C([O-])CN(CCN(CC(=O)[O-])CC(=O)O)CCN(CC(=O)[O-])CC(=O)O.[Gd+3]` [Gd-DTPA, gadolinium diethylene triamine pentaacetic acid], for which the “Ratio: Gd nucleus/Gd cytoplasm” value in data set [1] (exposure time 6 hrs) is on record as 1.6; in data set [1] (exposure time 24 hrs), 2.1; in data set [1] (exposure time 48 hrs) it was 1.0; in data set [1] (exposure time 72 hrs), 1.3. For the same molecule, the “growth and morphology after re-plating” value in data set [2] (cells exposed 120 hours, re-plated, after one week) is “grew normally”. Further, the “cytotoxic or cytostatic effect (cell counting vs. unexposed controls)” value in data set [2] (different concentrations of Gd-DTPA, 72 hours) is recorded as “not cytotoxic or cytostatic”. In data set [2] (exposed for up to 120 hours), the “cytotoxic or cytostatic effect (cell counting vs. control)” value is on record as “did not show any cytotoxic or cytostatic effect; also recorded: no toxic effects; also recorded: no effect on cell survival”. Further, the “cell death after Gd exposure followed by thermal neutrons” value in data set [3] (140 μg/ml Gd retained after two hours in physiological solution, 1 hour thermal neutrons) turned out to be 70%. The “cell inactivation by Gd plus thermal neutrons vs. thermal neutrons alone” value in data set [3] (70% vs. 20% killing) came out at 3.5 times. The “cell death after neutron irradiation” value in data set [3] (exposure 1 mg/ml Gd-DTPA 72 hours) was “not sufficient to induce consistent cell death”; in data set [3] (exposure 10 and 5 mg/ml Gd-DTPA 72 hours), “evident and reproducible cell death”. Also, the dose eliminated renally result in data set [4] (6 hours post-injection in man, average) is on record as “about 83%”. Also, in data set [4] (5 days post-injection in man), the “dose found in the urine” value is given as “approximately 91%”. For the same molecule, the “dose dependence of pharmacokinetics” value in data set [4] (humans) is listed as “independent of the dose”. The “half life in the blood” value in data set [4] (in vivo) is given as “around 30 minutes”. Besides, the intravascular hemolysis result in data set [5] is “weak, reversible intravascular hemolysis”. For the same molecule, the “cellular Gd concentration” value in data set [6] (120-hour exposure (maximum)) is 600 µg/mL; in data set [6] (after 24 hours), “more than 250 μg/ml”. Further, the “cellular Gd concentration vs. exposure time” value in data set [6] (10 mg/ml, up to 120 hours, FIG. 1) is “increases with the exposure time”. The “concentration of uptaken Gd vs. exposure concentration” value in data set [6] (1 to 25 mg/ml Gd-DTPA, 72 hours, FIG. 3) was “increases with the exposure concentration”. In data set [6] (120-hour exposure), the “maximum cellular concentration relative to the 250 μg/ml recommended for GdNCT” value stood at 2.4 times.
